Measurements as given in patent US20230416329A1, “A PEPTIDE WITH DISULFIDE BONDS AND INHIBITORY ACTIVITY AGAINST SERINE PROTEASES, DERIVED HYBRID PEPTIDES THEREOF, AND USES THEREOF” (INSTITUTE OF MATERIA MEDICA , CHINESE ACADEMY OF MEDICAL …, priority 2020, published 2023).

Key:
[1] = biological target: chymotrypsin (Bos taurus, UniProt P00766); experiment: in vitro; settings: isolated enzyme chymotrypsin, pH 7.8, Remaining peak area (%)/chymotrypsin
Procedure, shortened: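 RP-HPLC peak area tracked intact peptide after 37 °C digestion with chymotrypsin (0.05 μg/μL solution, 5 min preincubation). Samples were withdrawn at 1.5-60.0 min and stopped with 10% TFA.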

[2] = biological target: NEP24.11 (Homo sapiens, UniProt P08473); experiment: Tolerance of GLP-1 and its analogues to NEP24.11 (RP-HPLC remaining peak area); format: in vitro ADME; settings: for Remaining peak area (%)/NEP24.11: 0.0 h; for Remaining peak area (%)/NEP24.11 / remaining at 0.5 h, 30 μM / remaining at 2 h, 30 μM / remaining at 4 h, 30 μM / remaining at 8 h, 30 μM: peptide 30 μM, NEP24.11 1.0 ng/μL, 37° C.; for remaining at 0.5 h, 30 μM / remaining at 2 h, 30 μM / remaining at 4 h, 30 μM / remaining at 8 h, 30 μM: isolated NEP24.11 enzyme in buffer; for remaining at 0.5 h, 30 μM: pH 7.4, 0.5 h; for remaining at 2 h, 30 μM: pH 7.4, 2.0 h; for remaining at 4 h, 30 μM: pH 7.4, 4.0 h; for remaining at 8 h, 30 μM: pH 7.4, 8.0 h, read-out: Remaining peak area (%)/NEP24.11
Description: (§1) Mix by centrifugation at 8000 rpm for 30 seconds.
Arrange a certain volume of 0.04 μg/μL NEP24.11 enzyme solution in another sterile EP.

[3] = biological target: DPP-IV (Homo sapiens, UniProt P27487); experiment: Tolerance of GLP-1 and its analogues to DPP-IV (RP-HPLC remaining peak area); format: in vitro ADME; settings: peptide 25 μM, DPP-IV 0.5 ng/μL, 37° C.; for Remaining peak area (%)/DPP-IV: 0.0 h; for remaining at 0.5 h, 25 μM / remaining at 2 h, 25 μM / remaining at 4 h, 25 μM / remaining at 8 h, 25 μM / remaining at 12 h, 25 μM: isolated DPP-IV enzyme in buffer, pH 8
Description: as §1
(2) Arrange a certain volume of 0.005 μg/μL DPP-IV solution in another sterile EP.

[4] = biological target: T1, trypsin (Bos taurus, UniProt P00760); experiment: in vitro
T1 sequence (P00760 24-246): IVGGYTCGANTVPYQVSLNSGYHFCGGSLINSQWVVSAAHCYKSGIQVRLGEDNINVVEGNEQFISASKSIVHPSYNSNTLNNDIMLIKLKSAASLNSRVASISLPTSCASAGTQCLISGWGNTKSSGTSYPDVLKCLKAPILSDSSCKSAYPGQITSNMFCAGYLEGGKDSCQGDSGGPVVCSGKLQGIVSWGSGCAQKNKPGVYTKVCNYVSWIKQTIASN
Procedure, shortened: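 Remaining RP-HPLC peak area tracks undigested peptide over time. Samples were quenched with 10% TFA at time points between 1.5 and 60 min during 37 °C digestion. Trypsin was added from a 0.05 μg/μL solution after 5 min of thermal equilibration.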

[5] = isolated enzyme trypsin, pH 7.8

Sequence of DPP-IV (P27487 whole entry, species assumed): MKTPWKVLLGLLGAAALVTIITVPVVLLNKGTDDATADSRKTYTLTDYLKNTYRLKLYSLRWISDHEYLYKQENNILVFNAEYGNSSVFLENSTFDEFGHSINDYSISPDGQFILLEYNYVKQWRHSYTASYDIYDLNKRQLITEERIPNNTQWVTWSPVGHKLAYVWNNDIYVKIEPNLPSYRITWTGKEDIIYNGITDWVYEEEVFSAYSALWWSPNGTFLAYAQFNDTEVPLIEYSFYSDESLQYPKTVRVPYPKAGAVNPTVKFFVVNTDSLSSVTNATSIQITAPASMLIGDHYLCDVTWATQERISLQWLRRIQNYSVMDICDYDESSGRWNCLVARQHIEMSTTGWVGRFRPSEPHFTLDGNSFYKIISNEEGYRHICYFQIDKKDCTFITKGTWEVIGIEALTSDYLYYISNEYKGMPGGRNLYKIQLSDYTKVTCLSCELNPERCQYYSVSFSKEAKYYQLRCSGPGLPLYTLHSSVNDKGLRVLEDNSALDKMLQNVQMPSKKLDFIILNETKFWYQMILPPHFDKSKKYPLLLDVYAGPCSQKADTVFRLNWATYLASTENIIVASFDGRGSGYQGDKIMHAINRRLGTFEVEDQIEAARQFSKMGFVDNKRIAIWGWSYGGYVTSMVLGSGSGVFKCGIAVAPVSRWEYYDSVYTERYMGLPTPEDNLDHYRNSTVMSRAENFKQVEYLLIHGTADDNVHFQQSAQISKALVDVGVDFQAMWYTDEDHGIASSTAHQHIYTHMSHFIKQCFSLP
Sequence of NEP24.11 (P08473 whole entry): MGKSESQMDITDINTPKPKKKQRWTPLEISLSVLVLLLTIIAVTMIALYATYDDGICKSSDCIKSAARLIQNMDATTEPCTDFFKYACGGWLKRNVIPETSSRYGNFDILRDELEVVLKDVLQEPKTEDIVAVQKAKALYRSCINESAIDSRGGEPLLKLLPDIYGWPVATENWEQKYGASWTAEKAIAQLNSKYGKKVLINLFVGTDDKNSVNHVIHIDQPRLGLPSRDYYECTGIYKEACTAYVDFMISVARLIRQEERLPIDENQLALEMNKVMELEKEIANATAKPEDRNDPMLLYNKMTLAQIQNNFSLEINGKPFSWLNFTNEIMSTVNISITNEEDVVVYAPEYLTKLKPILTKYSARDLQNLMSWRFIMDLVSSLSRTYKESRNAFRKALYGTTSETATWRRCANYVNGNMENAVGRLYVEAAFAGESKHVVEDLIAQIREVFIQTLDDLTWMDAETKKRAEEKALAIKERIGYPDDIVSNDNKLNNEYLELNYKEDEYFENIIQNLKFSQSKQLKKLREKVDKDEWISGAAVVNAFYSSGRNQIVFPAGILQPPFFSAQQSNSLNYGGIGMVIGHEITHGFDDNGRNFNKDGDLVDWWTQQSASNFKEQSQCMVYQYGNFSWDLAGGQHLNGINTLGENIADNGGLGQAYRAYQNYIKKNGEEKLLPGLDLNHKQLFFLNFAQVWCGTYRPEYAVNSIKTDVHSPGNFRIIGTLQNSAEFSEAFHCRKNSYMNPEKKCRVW

remaining at 0.025 h, 60 μM [1] [%]	remaining at 0.05 h, 60 μM [1] [%]	remaining at 0.075 h, 60 μM [1] [%]	remaining at 0.1 h, 60 μM [1] [%]	remaining at 0.15 h, 60 μM [1] [%]	remaining at 0.025 h, 60 μM [4, 5] [%]	remaining at 0.05 h, 60 μM [4, 5] [%]	remaining at 0.075 h, 60 μM [4, 5] [%]	remaining at 0.1 h, 60 μM [4, 5] [%]	SMILES	Remaining peak area (%)/NEP24.11 [2] [%]	remaining at 0.5 h, 30 μM [2] [%]	remaining at 2 h, 30 μM [2] [%]	remaining at 4 h, 30 μM [2] [%]	remaining at 8 h, 30 μM [2] [%]	Remaining peak area (%)/DPP-IV [3] [%]	remaining at 0.5 h, 25 μM [3] [%]	remaining at 2 h, 25 μM [3] [%]	remaining at 4 h, 25 μM [3] [%]	remaining at 8 h, 25 μM [3] [%]	remaining at 12 h, 25 μM [3] [%]	other results
77.1 ± 1.8	57.7 ± 2	50.4 ± 3.2	41.2 ± 3.1	26 ± 2.9	90.8 ± 0.5	90.4 ± 2	91 ± 2.1	91.1 ± 3	CC[C@H](C)[C@H](NC(=O)[C@H](Cc1ccccc1)NC(=O)[C@H](CCC(=O)O)NC(=O)[C@H](CCCCN)NC(=O)[C@H](C)NC(=O)[C@H](C)NC(=O)[C@H](CCC(N)=O)NC(=O)CNC(=O)[C@H](CCC(=O)O)NC(=O)[C@H](CC(C)C)NC(=O)[C@H](Cc1ccc(O)cc1)NC(=O)[C@H](CO)NC(=O)[C@H](CO)NC(=O)[C@@H](NC(=O)[C@H](CC(=O)O)NC(=O)[C@H](CO)NC(=O)[C@@H](NC(=O)[C@H](Cc1ccccc1)NC(=O)[C@@H](NC(=O)CNC(=O)[C@H](CCC(=O)O)NC(=O)[C@H](C)NC(=O)[C@H](Cc1c[nH]cn1)NC(=O)CNC(=O)CNC(=O)[C@H](CCCNC(=N)N)NC(=O)[C@H](CO)NC(=O)[C@H](Cc1ccccc1)NC(=O)[C@H](CCCNC(=N)N)NC(=O)[C@H](CCC(N)=O)NC(=O)CNC(=O)CNC(=O)[C@H](Cc1ccccc1)NC(=O)[C@@H]1CSSC[C@H](N)C(=O)NCC(=O)N[C@@H](CCCNC(=N)N)C(=O)N[C@@H](C)C(=O)N[C@@H]([C@@H](C)O)C(=O)N[C@@H](CCCCN)C(=O)N[C@@H](CO)C(=O)N[C@@H]([C@@H](C)CC)C(=O)N2CCC[C@H]2C(=O)N2CCC[C@H]2C(=O)N[C@@H]([C@@H](C)CC)C(=O)N1)[C@@H](C)O)[C@@H](C)O)C(C)C)C(=O)N[C@@H](C)C(=O)N[C@@H](Cc1c[nH]c2ccccc12)C(=O)N[C@@H](CC(C)C)C(=O)N[C@H](C(=O)N[C@@H](CCCCN)C(=O)NCC(=O)N[C@@H](CCCNC(=N)N)C(=O)NCC(=O)NCC(=O)N[C@@H](CCCCN)C(=O)O)C(C)C [BT9-N-GLP-1]	100.0 ± 0.0	76.4 ± 1.1	63.5 ± 1.9	47 ± 4.3	41.8 ± 2.7	100.0 ± 0.0	92.5 ± 1.5	88 ± 1.8	79.4 ± 2.2	76.1 ± 1.4	71.2 ± 2.1	remaining at 0.15 h, 60 μM [4, 5]: 90.9 ± 3.1%; remaining at 0.25 h, 60 μM [4, 5]: 86.6 ± 3.5%; remaining at 0.5 h, 60 μM [4, 5]: 86.5 ± 3.5%; remaining at 1 h, 60 μM [4, 5]: 74.4 ± 2.6%
97 ± 5.7	89.8 ± 0.9	85.1 ± 4.4	84.3 ± 2	78.2 ± 2.1	68.3 ± 5.9	44.9 ± 3.5	21.2 ± 1.1	0	CC[C@H](C)[C@H](NC(=O)[C@H](Cc1ccccc1)NC(=O)[C@H](CCC(=O)O)NC(=O)[C@H](CCCCN)NC(=O)[C@H](C)NC(=O)[C@H](C)NC(=O)[C@H](CCC(N)=O)NC(=O)CNC(=O)[C@H](CCC(=O)O)NC(=O)[C@H](CC(C)C)NC(=O)[C@H](Cc1ccc(O)cc1)NC(=O)[C@H](CO)NC(=O)[C@H](CO)NC(=O)[C@@H](NC(=O)[C@H](CC(=O)O)NC(=O)[C@H](CO)NC(=O)[C@@H](NC(=O)[C@H](Cc1ccccc1)NC(=O)[C@@H](NC(=O)CNC(=O)[C@H](CCC(=O)O)NC(=O)[C@H](C)NC(=O)[C@H](Cc1c[nH]cn1)NC(=O)CNC(=O)CNC(=O)[C@@H](NC(=O)[C@@H]1CCCN1C(=O)[C@@H](NC(=O)CNC(=O)CNC(=O)[C@H](CCCNC(=N)N)NC(=O)[C@H](CO)NC(=O)[C@H](Cc1ccccc1)NC(=O)[C@H](CCCNC(=N)N)NC(=O)[C@H](CCC(N)=O)NC(=O)CNC(=O)CNC(=O)[C@@H]1CSSC[C@H](N)C(=O)N2CCC[C@H]2C(=O)N[C@@H](CCCCN)C(=O)N[C@@H]([C@@H](C)CC)C(=O)N[C@@H](CC(C)C)C(=O)N[C@@H](CCC(N)=O)C(=O)N[C@@H](CCCNC(=N)N)C(=O)N1)[C@@H](C)CC)[C@@H](C)CC)[C@@H](C)O)[C@@H](C)O)C(C)C)C(=O)N[C@@H](C)C(=O)N[C@@H](Cc1c[nH]c2ccccc12)C(=O)N[C@@H](CC(C)C)C(=O)N[C@H](C(=O)N[C@@H](CCCCN)C(=O)NCC(=O)N[C@@H](CCCNC(=N)N)C(=O)NCC(=O)NCC(=O)N[C@@H](CCCCN)C(=O)O)C(C)C [DNT-GLP-1]	100.0 ± 0.0	82.2 ± 1.3	79.1 ± 1.7	77.9 ± 4.2	67.8 ± 4.7	100.0 ± 0.0	108 ± 9.3	108 ± 1.7	105 ± 2.3	105 ± 1.7	97.4 ± 2.1	stability towards trypsin hydrolysis (in words) [4]: completely degraded; remaining at 0.15 h, 60 μM [4, 5]: 0%
72.1 ± 11.5	45.8 ± 6.5	38 ± 2.3	29.3 ± 4.7	11.3 ± 3.2	21 ± 2.9	17.2 ± 0.8	9.8 ± 2.9	4.5 ± 0.8	CC[C@H](C)[C@H](NC(=O)[C@H](Cc1ccccc1)NC(=O)[C@H](CCC(=O)O)NC(=O)[C@H](CCCCN)NC(=O)[C@H](C)NC(=O)[C@H](C)NC(=O)[C@H](CCC(N)=O)NC(=O)CNC(=O)[C@H](CCC(=O)O)NC(=O)[C@H](CC(C)C)NC(=O)[C@H](Cc1ccc(O)cc1)NC(=O)[C@H](CO)NC(=O)[C@H](CO)NC(=O)[C@@H](NC(=O)[C@H](CC(=O)O)NC(=O)[C@H](CO)NC(=O)[C@@H](NC(=O)[C@H](Cc1ccccc1)NC(=O)[C@@H](NC(=O)CNC(=O)[C@H](CCC(=O)O)NC(=O)[C@H](C)NC(=O)[C@H](Cc1c[nH]cn1)NC(=O)CNC(=O)CNC(=O)CNC(=O)CNC(=O)CNC(=O)CNC(=O)CN)[C@@H](C)O)[C@@H](C)O)C(C)C)C(=O)N[C@@H](C)C(=O)N[C@@H](Cc1c[nH]c2ccccc12)C(=O)N[C@@H](CC(C)C)C(=O)N[C@H](C(=O)N[C@@H](CCCCN)C(=O)NCC(=O)N[C@@H](CCCNC(=N)N)C(=O)NCC(=O)O)C(C)C [G7-GLP-1]	100.0 ± 0.0	63 ± 5.1	27.2 ± 7.2	11.5 ± 0.3	0	100.0 ± 0.0	42.1 ± 15.5	51.1 ± 6.5	55.3 ± 14.4	42.3 ± 9.6	34.5 ± 2.1	degradation by NEP24.11 (in words) ([2]; after 8 hours): almost completely degraded; remaining prototype peptide after DPP-IV treatment ([3]; 12 hours): about 34.5%; remaining at 0.15 h, 60 μM [4, 5]: 3.4 ± 1.7%
